Patent publication US6737383B1, “Herbicidal oxadiazolidines” (priority 1999, dated 2004)

Assays:
[1] = test system: bedstraw; experiment: Test B pre/postemergence bedstraw; type: in vivo, Galium aparine
How it was run: (§1)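 Response is a visual 0-to-10 score relative to untreated plants, where 0 means no effect and 10 means complete control, taken twelve to sixteen days after application. Treatments went onto soil at planting and onto foliage of 1- to 4-leaf plants, using a surfactant-containing non-phytotoxic solvent.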

[2] = test system: blackgrass; experiment: Test B pre/postemergence blackgrass; type: in vivo, Alopecurus myosuroides
Text: (§2) Seeds of bedstraw (Galium aparine), blackgrass (Alopecurus myosuroides), surinam grass (Brachiaria decumbens), cocklebur (Xanthium strumarium), corn (Zea mays), crabgrass (Digitaria sanguinalis), giant foxtail (Setaria faberii), morningglory (Ipomoea hederacea), pigweed (Amaranthus retroflexus), rape (Brassica napus), soybean (Glycine max), sugar beet (Beta vulgaris), velvetleaf (Abutilon theophrasti), wheat (Triticum aestivum), wild oat (Avena fatua) and purple nutsedge (Cyperus rotundus) tubers were planted and treated preemnergence with test chemicals formulated in a non-phytotoxic solvent mixture which included a surfactant.
(§3) At the same time, these crop and weed species were also treated with postemergence applications of test chemicals formulated in the same manner. Plants ranged in height from 2 to 18 cm (1- to 4-leaf stage) for postemergence treatments. Plant species in the flood test consisted of rice (Oryza sativa), smallflower flatsedge (Cyperus difformis), duck salad (Heteranthera limosa) and bamyardgrass (Echinochloa crus-galli) grown to the 2-leaf stage for testing. Treated plants and controls were maintained in a greenhouse for twelve to sixteen days, after which all species were compared to controls and visually evaluated. Plant response ratings, summarized in Table B, are based on a scale of 0 to 10 where 0 is no effect and 10 is complete control. A dash (−) response means no test result.

[3] = test system: surinam grass; experiment: Test B pre/postemergence surinam grass; type: in vivo, Brachiaria decumbens
Text: as §2, §3

[4] = test system: cocklebur; experiment: Test B pre/postemergence cocklebur; type: in vivo, Xanthium strumarium
Text: as §2, §3

[5] = test system: corn; experiment: Test B pre/postemergence corn; type: in vivo, Zea mays
Text: as §2, §3

[6] = test system: crabgrass; experiment: Test B pre/postemergence crabgrass; type: in vivo, Digitaria sanguinalis
How it was run: as §1

[7] = test system: giant foxtail; experiment: Test B pre/postemergence giant foxtail; type: in vivo, Setaria faberii
Text: as §2, §3

[8] = test system: morningglory; experiment: Test B pre/postemergence morningglory; type: in vivo, Ipomoea hederacea
How it was run: as §1

[9] = test system: pigweed; experiment: Test B pre/postemergence pigweed; type: in vivo, Amaranthus retroflexus
How it was run: as §1

[10] = test system: rape; experiment: Test B pre/postemergence rape; type: in vivo, Brassica napus
Text: as §2, §3

[11] = test system: soybean; experiment: Test B pre/postemergence soybean; type: in vivo, Glycine max
How it was run: as §1

[12] = test system: sugar beet; experiment: Test B pre/postemergence sugar beet; type: in vivo, Beta vulgaris
How it was run: as §1

[13] = test system: velvetleaf; experiment: Test B pre/postemergence velvetleaf; type: in vivo, Abutilon theophrasti
Text: as §2, §3

[14] = test system: wheat; experiment: Test B pre/postemergence wheat; type: in vivo, Triticum aestivum
Text: as §2, §3

[15] = test system: wild oat; experiment: Test B pre/postemergence wild oat; type: in vivo, Avena fatua
How it was run: as §1

[16] = test system: purple nutsedge; experiment: Test B pre/postemergence purple nutsedge; type: in vivo, Cyperus rotundus
Text: as §2, §3

[17] = Preemergence, Rate 62 g/ha, scale of 0 to 10 where 0 is no effect and 10 is complete control
[18] = Preemergence, Rate 125 g/ha, scale of 0 to 10 where 0 is no effect and 10 is complete control
[19] = Preemergence, Rate 250 g/ha, scale 0 (no effect) to 10 (complete control)
[20] = Preemergence, Rate 500 g/ha, scale of 0 to 10 where 0 is no effect and 10 is complete control
[21] = Rate 500 g/ha, Postemergence, scale 0 to 10, 0 is no effect, 10 is complete control
[22] = Postemergence, Rate 62 g/ha, scale 0 to 10, 0 is no effect, 10 is complete control
[23] = Postemergence, Rate 125 g/ha, scale of 0 to 10 where 0 is no effect and 10 is complete control
[24] = Rate 250 g/ha, Postemergence, scale 0 to 10, 0 is no effect, 10 is complete control

CC(C)N(C(=O)n1oc(=O)n(CCCCCl)c1=O)c1ccc(F)cc1 [Compound 712]
Bedstraw plant response rating [1, 17]: 0 | Plant response rating, Bedstraw [1, 18]: 0 | Bedstraw plant response rating [1, 19]: 2 | Plant response rating, Bedstraw [1, 20]: 5 | Bedstraw plant response rating [1, 21]: 8 | Plant response rating, Blackgrass [2, 22]: 0 | Blackgrass plant response rating [2, 23]: 0 | Blackgrass plant response rating [2, 17]: 3 | Plant response rating, Blackgrass [2, 18]: 6 | Blackgrass plant response rating [2, 19]: 8 | Plant response rating, Blackgrass [2, 20]: 9 | Blackgrass plant response rating [2, 24]: 5 | Blackgrass plant response rating [2, 21]: 6 | Plant response rating, B. signalgrass [3, 22]: 0 | B. signalgrass plant response rating [3, 23]: 0 | B. signalgrass plant response rating [3, 17]: 3 | Plant response rating, B. signalgrass [3, 18]: 5 | B. signalgrass plant response rating [3, 19]: 8 | Plant response rating, B. signalgrass [3, 20]: 8 | B. signalgrass plant response rating [3, 24]: 4 | B. signalgrass plant response rating [3, 21]: 8 | Plant response rating, Cocklebur [4, 22]: 0 | Cocklebur plant response rating [4, 23]: 0 | Cocklebur plant response rating [4, 17]: 0 | Plant response rating, Cocklebur [4, 18]: 0 | Cocklebur plant response rating [4, 19]: 0 | Plant response rating, Cocklebur [4, 20]: 0 | Cocklebur plant response rating [4, 24]: 3 | Cocklebur plant response rating [4, 21]: 3 | Plant response rating, Corn [5, 22]: 0 | Corn plant response rating [5, 23]: 0 | Corn plant response rating [5, 17]: 0 | Plant response rating, Corn [5, 18]: 0 | Corn plant response rating [5, 19]: 0 | Corn plant response rating [5, 24]: 0 | Corn plant response rating [5, 21]: 0 | Plant response rating, Crabgrass [6, 22]: 1 | Crabgrass plant response rating [6, 23]: 4 | Crabgrass plant response rating [6, 17]: 8 | Plant response rating, Crabgrass [6, 18]: 9 | Crabgrass plant response rating [6, 19]: 10 | Crabgrass plant response rating [6, 24]: 9 | Crabgrass plant response rating [6, 21]: 9 | Plant response rating, Giant foxtail [7, 22]: 3 | Giant foxtail plant response rating [7, 23]: 8 | Giant foxtail plant response rating [7, 17]: 10 | Plant response rating, Giant foxtail [7, 18]: 10 | Giant foxtail plant response rating [7, 19]: 10 | Giant foxtail plant response rating [7, 24]: 8 | Giant foxtail plant response rating [7, 21]: 9 | Plant response rating, Morningglory [8, 22]: 3 | Morningglory plant response rating [8, 23]: 4 | Morningglory plant response rating [8, 17]: 0 | Plant response rating, Morningglory [8, 18]: 0 | Morningglory plant response rating [8, 19]: 0 | Morningglory plant response rating [8, 24]: 10 | Morningglory plant response rating [8, 21]: 10 | Plant response rating, Redroot pigweed [9, 22]: 3 | Redroot pigweed plant response rating [9, 17]: 6 | Plant response rating, Redroot pigweed [9, 18]: 8 | Redroot pigweed plant response rating [9, 19]: 8 | Redroot pigweed plant response rating [9, 24]: 6 | Redroot pigweed plant response rating [9, 21]: 8 | Plant response rating, Rape [10, 22]: 2 | Rape plant response rating [10, 23]: 3 | Rape plant response rating [10, 17]: 0 | Plant response rating, Rape [10, 18]: 2 | Rape plant response rating [10, 19]: 7 | Rape plant response rating [10, 24]: 4 | Rape plant response rating [10, 21]: 4 | Plant response rating, Soybean [11, 22]: 2 | Soybean plant response rating [11, 23]: 5 | Soybean plant response rating [11, 17]: 0 | Plant response rating, Soybean [11, 18]: 0 | Soybean plant response rating [11, 19]: 0 | Soybean plant response rating [11, 24]: 5 | Soybean plant response rating [11, 21]: 5 | Plant response rating, Sugarbeets [12, 22]: 1 | Sugarbeets plant response rating [12, 23]: 3 | Sugarbeets plant response rating [12, 17]: 0 | Plant response rating, Sugarbeets [12, 18]: 4 | Sugarbeets plant response rating [12, 19]: 7 | Sugarbeets plant response rating [12, 21]: 6 | Plant response rating, Velvetleaf [13, 22]: 0 | Velvetleaf plant response rating [13, 23]: 5 | Velvetleaf plant response rating [13, 17]: 0 | Plant response rating, Velvetleaf [13, 18]: 3 | Velvetleaf plant response rating [13, 19]: 3 | Velvetleaf plant response rating [13, 24]: 6 | Velvetleaf plant response rating [13, 21]: 6 | Plant response rating, Wheat [14, 22]: 0 | Wheat plant response rating [14, 23]: 0 | Wheat plant response rating [14, 17]: 0 | Plant response rating, Wheat [14, 18]: 0 | Wheat plant response rating [14, 19]: 0 | Wheat plant response rating [14, 24]: 0 | Wheat plant response rating [14, 21]: 5 | Plant response rating, Wild oats [15, 22]: 0 | Wild oats plant response rating [15, 23]: 0 | Wild oats plant response rating [15, 17]: 0 | Plant response rating, Wild oats [15, 18]: 3 | Wild oats plant response rating [15, 19]: 3 | Wild oats plant response rating [15, 24]: 0 | Wild oats plant response rating [15, 21]: 3 | Plant response rating, Nutsedge [16, 22]: 0 | Nutsedge plant response rating [16, 23]: 0 | Nutsedge plant response rating [16, 17]: 0 | Plant response rating, Nutsedge [16, 18]: 0 | Nutsedge plant response rating [16, 19]: 0 | Nutsedge plant response rating [16, 24]: 0 | Nutsedge plant response rating [16, 21]: 0
